# Earlier results in patent US20070092440A1, “Bone localising radiopharmaceutical and tubulin-interacting compound combinatorial” (priority 2003, published 2007).
# Legend:
# [1] = system: HRPC patients with bone metastases
# [2] = repeated dosing with 1.0 mCi/kg
# [3] = system: leukocyte and platelet counts; settings: 1.0 mCi/kg
# [4] = in vivo
# [5] = supplied frozen
# [6] = system: bone pain, osteoblastic metastatic bone lesions; settings: for treated patients with symptomatic relief of bone pain: in vivo
# [7] = in bone
smiles,measurement,setting,value
COc1cccc2c1C(=O)c1c(O)c3c(c(O)c1C2=O)C[C@@](O)(C(=O)CO)C[C@@H]3O[C@H]1C[C@H](N)[C@H](O)[C@H](C)O1 [doxorubicin],overall survival,"[1]; 72 HRPC patients with bone metastases, randomized",16.8 months
same,incidence of Grade 3/4 neutropenia,[1]; in vivo,22%
O=P([O-])(O)CN(CCN(CP(=O)([O-])O)CP(=O)(O)O)CP(=O)([O-])O.[153Sm+3] [samarium Sm 153 lexidronam],cumulative toxicity on repeated dosing,[2],not associated with cumulative toxicity
same,median time of nadir of leukocyte and platelet counts,[3],4 weeks
same,patients with Grade 3/4 haematologic toxicity,[3],< 10%
same,time by which recovery of counts is generally complete,[3],5-8 weeks
same,myelosuppression,[4],Myelosuppression has been observed
same,drug product expiry after the time of calibration,[5],48 h
same,patients with pain relief at Week 4 who still had pain relief at Week 16,[6]; 1.0 mCi/kg dose group,two-thirds
same,treated patients with symptomatic relief of bone pain,[6],approximately 80%
same,range of emission,[7],1.7 mm
same,time in which the majority of excretion occurs,after administration,≤ 8 h
same,time to complete excretion,after administration,≤ 12 h
same,clearance route,in vivo,exclusively renal
same,uptake by nonosseous tissue,in vivo,no significant uptake
CC(=O)O[C@@]12CO[C@@H]1C[C@H](O)[C@@]1(C)C(=O)[C@H](O)C3=C(C)[C@@H](OC(=O)[C@H](O)[C@@H](NC(=O)OC(C)(C)C)c4ccccc4)C[C@@](O)([C@@H](OC(=O)c4ccccc4)[C@H]21)C3(C)C [docetaxel],myelosuppression,[4],Myelosuppression has been observed
[89Sr+2].[Cl-].[Cl-] [strontium 89 chloride],treated patients with symptomatic relief of bone pain,[6],approximately 80%
